Results published in US20040198973A1, “Process for preparation of carbapenem antibiotics” (priority 2001, published 2004).

Key:
Pseudomonas aeruginosa = settings: Document 1: Drug of the Future, 1996, 21(4): 361-365; cited from earlier work
[1] = Solubility of starting compound 1 in organic solvents; format: physicochemical
Source text: The process described in Document 3 (Kohichi Hirai, Hiroshi Maruyama, Journal of Synthetic Organic Chemistry, Japan, 57, 383 (1999)) is the one for implementing such a procedure wherein a side chain part including amine is first condensed with parent derived from azetidinone, then, an active ester is introduced into the condensate, and thereafter, the resulting product is subjected to ring-closing reaction to form a lactam ring. However, a compound into which an active ester has been already introduced, p-nitrobenzyl(1R,5S,6S)-2-diphenoxyphosphoryloxy-6-[(R)-1-hydroxyethyl]-1-methyl-1-carbapen-2-em-3-carboxylate (starting compound 1) is industrially available recently at an affordable price as a starting material for parent of carbapenem, so that the starting material has been replaced by the above-described compound. However, solubility of the starting compound 1 is high in a high boiling point solvent such as dimethylformamide and dimethylsulfoxide, while it is low in a solvent having a low boiling point such as tetrahydrofuran and acetonitrile, as well as in aromatic solvents such as toluene (see the following Table 1). Under the circumstances, when a high boiling point solvent is used, a difficulty in industrial level arises in case of removing the high boiling point solvent as described later in detail. For this reason, there are many cases wherein the above-described starting compound 1 cannot be applied to the process of Document 3.

Compound | antimicrobial action (Pseudomonas aeruginosa) | Solubility ([1]; Acetonitrile, at 20° C., solvent volume per 0.1 g) [ML/0.1 g] | Solubility ([1]; Dimethylformamide, at 20° C., solvent volume per 0.1 g) [ML/0.1 g] | Solubility ([1]; Methylsulfoxide, at 20° C., solvent volume per 0.1 g) [ML/0.1 g] | Solubility ([1]; Tetrahydrofuran, at 20° C., solvent volume per 0.1 g) [ML/0.1 g] | Solubility ([1]; Toluene, at 20° C., solvent volume per 0.1 g) [ML/0.1 g] | Solubility ([1]; in a high boiling point solvent such as dimethylformamide and dimethylsulfoxide) | Solubility ([1]; in a low boiling point solvent such as tetrahydrofuran and acetonitrile, and aromatic solvents such as toluene)
C[C@@H](O)[C@H]1C(=O)N2C(C(=O)O)=C(S[C@@H]3CN[C@H]([C@H](O)[C@@H]4CCNC4)C3)[C@H](C)[C@H]12 | excellent antimicrobial action | – | – | – | – | – | – | –
C[C@@H](O)[C@H]1C(=O)N2C(C(=O)OCc3ccc([N+](=O)[O-])cc3)=C(OP(=O)(Oc3ccccc3)Oc3ccccc3)[C@H](C)[C@@H]12 [p-nitrobenzyl(1R,5S,6S)-2-diphenoxyphosphoryloxy-6-[(R)-1-hydroxyethyl]-1-methyl-1-carbapen-2-em-3-carboxylate] | – | 0.6 | <0.1 | <0.1 | 0.6 | >10 | high | low
